Laboratory results reported in patent publication US5206029A, “Medicament and its production and use in the treatment of pain, inflammation and fever in man and animals” (PAZ Arzneimittel-Entwicklungsgesellschaft mbH, priority 1990, dated 1993).

Key:
gastro-intestinal mucosa = assay: gastrointestinal toxicity in the rat (gastric ulcer index, intestinal ulcer); assay type: in vivo
Procedure: Each of the test groups were sacrificed after 24 hours, the stomach and intestines were removed and the stomach opened and cleaned with salt solution. The number of ulcerations multiplied with the diameter thereof in mm. is given as the "gastric ulcer index". The unopened small intestine was investigated for white and brown color changes. The corresponding sections were cut out and the weight thereof in comparison with the total weight plotted in % as "intestinal ulcer". The results are significant in the t-test in comparison with the control.

cramp pain = cramp pain test in mice; assay type: in vivo, mouse; conditions: FIG. 1
Source text: (§1) This unexpected result was verified by investigations in two animal models (mouse and rat).
(§2) FIGS. 1-4 are graphs of tests in rats for cramp pain, interleukin-1-inducedpain, prostaglandin production and carrageenin-induced paw oedema for the R(-) and S(+) enantiomers of flurbiprofen, […]

[1] = tested on: interleukin 1-induced pain; assay: interleukin 1-induced pain test in rats; assay type: in vivo, rat; conditions: FIG. 2
Source text: as §1, §2

[2] = tested on: carrageenin-induced paw oedema; assay: carrageenin-induced paw oedema of the rat; assay type: in vivo, rat (male Sprague-Dawley); conditions: for oedema inhibition: 0.3 mg./kg. per os, paw volume after 3 hours p.a., FIG. 4
Procedure: To male Sprague-Dawley rats, each with a body weight of 120 to 150 g., were administered per os with a stomach probe the test substances (0.3 mg./kg. body weight). Immediately thereafter, into the left rear paw was injected subplantary 0.1 ml. of a.1% carrageenin solution in order to induce oedema. After 3 hours p.a., the paw volumes were determined by means of a plethysmometer (modified method according to Hofrichter).

[3] = set-up: species or system mouse and rat; conditions: in vivo
Source text: as §1

post-episiotomy pain = conditions: half dosage; A. Sunshine et al., Clin. Pharmacol Ther. 1987; cited from earlier work
[4] = tested on: macrophages (peritoneum of the mouse); assay: inhibition of prostaglandin liberation on macrophages (peritoneum of the mouse); assay type: cell-based
Procedure: Furthermore, contrary to the published state of knowledge (v. supra), S(+)-flurbiprofen in the case of administration after episiotomy is preferably effective antiphlogistically and not preferably analgesically. This further surprising test result was tested on two inflammation models selected independently of one another.

| Compound | toxicity on the gastrointestinal tract, compared with the racemate or the S(+)-enantiomer (gastro-intestinal mucosa; summary statement) | analgesic effectiveness in the cramp pain test, R- versus S-enantiomer (cramp pain) | analgesic effectiveness in the interleukin 1-induced pain test, R- versus S-enantiomer [1] | oedema inhibition [2] [%] | inversion after administration [3] | damage of the gastro-intestinal mucosa (gastro-intestinal mucosa; rat, in vivo) | analgesic effectiveness compared with the racemate (post-episiotomy pain) | inhibition of the liberation of prostaglandin, compared with the R(-)-form [4] | inflammation-inhibiting action in carrageenin paw oedema, compared with the R(-)-form ([2]; rat, FIGS. 3 and 4) |
| --- | --- | --- | --- | --- | --- | --- | --- | --- | --- |
| C[C@@H](C(=O)O)c1ccc(-c2ccccc2)c(F)c1 [R(-)-flurbiprofen] | lower grade toxicity on the gastrointestinal tract than the racemate or the S(+)-enantiomer | equal or even more effective by about one third to a half | equal or even more effective by about one third to a half | 18 | no or only a very small inversion |  |  |  |  |
| C[C@H](C(=O)O)c1ccc(-c2ccccc2)c(F)c1 [S(+)-flurbiprofen] |  |  |  | 64 | no or only a very small inversion | only S(+)-flurbiprofen caused damage | already more effective at half dosage | inhibits the liberation of prostaglandin more markedly than the R(-)-form | superior in its inflammation-inhibiting action to the R(-)-form |
